In ChEMBL document CHEMBL3991601, “The target landscape of clinical kinase drugs” (Science, 2017):
Activity calls are given as the source filed them. For most assays here, no stated cut-off is given here; in the data, actives have a measured Kd and inactives only a lower limit.

Assays:
[1] = target: AP2-associated protein kinase 1 (Homo sapiens, UniProt Q2M2I8)
[2] = target: T1, Probable ATP-dependent RNA helicase DDX6 (Homo sapiens, UniProt P26196)
T1 sequence (P26196 whole entry): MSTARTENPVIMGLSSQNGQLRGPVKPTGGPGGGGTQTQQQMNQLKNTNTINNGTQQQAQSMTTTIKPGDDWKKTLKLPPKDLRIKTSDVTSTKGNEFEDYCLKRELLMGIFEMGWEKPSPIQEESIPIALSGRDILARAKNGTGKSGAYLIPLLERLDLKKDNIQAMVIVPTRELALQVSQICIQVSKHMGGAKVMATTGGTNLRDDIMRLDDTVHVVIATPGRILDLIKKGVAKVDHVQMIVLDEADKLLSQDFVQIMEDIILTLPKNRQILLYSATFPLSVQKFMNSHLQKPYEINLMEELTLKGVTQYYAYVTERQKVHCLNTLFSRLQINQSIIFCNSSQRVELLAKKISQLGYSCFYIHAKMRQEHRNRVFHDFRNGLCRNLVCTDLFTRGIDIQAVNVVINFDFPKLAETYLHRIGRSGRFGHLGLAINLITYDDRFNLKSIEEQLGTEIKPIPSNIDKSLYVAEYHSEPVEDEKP

[3] = target: MAP kinase-activated protein kinase 2 (Homo sapiens, UniProt P49137)
[4] = target: Serine/threonine-protein kinase 16 (Homo sapiens, UniProt O75716)
[5] = target: Serine/threonine-protein kinase 10 (Homo sapiens, UniProt O94804)
[6] = target: Protein kinase C delta type (Homo sapiens, UniProt Q05655)
[7] = target: Tyrosine-protein kinase Lyn (Homo sapiens, UniProt P07948)
[8] = target: T2, Mitogen-activated protein kinase kinase kinase 2 (Homo sapiens, UniProt Q9Y2U5)
T2 sequence (Q9Y2U5 whole entry): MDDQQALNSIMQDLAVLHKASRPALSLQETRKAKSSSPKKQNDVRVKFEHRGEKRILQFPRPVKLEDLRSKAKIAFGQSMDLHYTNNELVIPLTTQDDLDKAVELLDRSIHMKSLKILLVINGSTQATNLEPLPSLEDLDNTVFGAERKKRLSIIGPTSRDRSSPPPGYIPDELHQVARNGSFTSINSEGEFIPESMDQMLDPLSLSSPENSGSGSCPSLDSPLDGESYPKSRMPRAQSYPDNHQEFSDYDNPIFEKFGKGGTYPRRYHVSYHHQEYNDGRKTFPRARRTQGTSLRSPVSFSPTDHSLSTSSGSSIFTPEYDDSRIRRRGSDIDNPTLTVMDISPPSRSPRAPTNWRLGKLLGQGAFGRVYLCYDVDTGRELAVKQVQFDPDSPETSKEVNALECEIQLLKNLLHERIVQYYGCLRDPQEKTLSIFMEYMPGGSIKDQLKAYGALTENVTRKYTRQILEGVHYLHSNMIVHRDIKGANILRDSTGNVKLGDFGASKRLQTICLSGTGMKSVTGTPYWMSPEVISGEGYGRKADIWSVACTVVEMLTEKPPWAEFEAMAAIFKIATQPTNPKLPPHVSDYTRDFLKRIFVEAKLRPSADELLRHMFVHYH

[9] = target: Eukaryotic translation initiation factor 2-alpha kinase 1 (Homo sapiens, UniProt Q9BQI3)
[10] = target: T3, Glycogen phosphorylase, liver form (Homo sapiens, UniProt P06737); assay type: subcellular, K-562, COLO 205, SK-N-BE(2) and MV-4-11, Cell lysate; conditions: read-out: Kd apparent
T3 sequence (P06737 whole entry): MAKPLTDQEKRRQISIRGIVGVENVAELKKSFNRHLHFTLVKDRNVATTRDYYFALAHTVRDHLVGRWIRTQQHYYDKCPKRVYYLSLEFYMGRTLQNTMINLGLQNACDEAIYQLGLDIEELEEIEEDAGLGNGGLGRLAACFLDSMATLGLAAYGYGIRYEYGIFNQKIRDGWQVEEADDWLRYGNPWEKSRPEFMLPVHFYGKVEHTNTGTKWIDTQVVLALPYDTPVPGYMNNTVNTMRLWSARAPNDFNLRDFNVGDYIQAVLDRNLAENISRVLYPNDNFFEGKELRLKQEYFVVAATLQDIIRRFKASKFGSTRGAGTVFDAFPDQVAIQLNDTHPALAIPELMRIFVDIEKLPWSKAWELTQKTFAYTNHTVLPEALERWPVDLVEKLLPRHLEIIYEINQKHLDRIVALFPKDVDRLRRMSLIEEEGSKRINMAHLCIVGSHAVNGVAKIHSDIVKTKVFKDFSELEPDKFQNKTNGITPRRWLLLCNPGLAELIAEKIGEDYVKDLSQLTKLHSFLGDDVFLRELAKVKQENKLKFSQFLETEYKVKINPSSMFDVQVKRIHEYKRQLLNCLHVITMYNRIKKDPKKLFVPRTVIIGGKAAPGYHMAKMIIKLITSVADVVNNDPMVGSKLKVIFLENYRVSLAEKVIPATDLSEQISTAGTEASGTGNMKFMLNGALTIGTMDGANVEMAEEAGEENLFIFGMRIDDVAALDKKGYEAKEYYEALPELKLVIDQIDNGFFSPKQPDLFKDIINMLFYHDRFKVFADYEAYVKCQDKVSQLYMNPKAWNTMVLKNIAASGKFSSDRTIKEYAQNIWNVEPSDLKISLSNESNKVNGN

AP2-associated protein kinase 1, sequence (Q2M2I8 whole entry): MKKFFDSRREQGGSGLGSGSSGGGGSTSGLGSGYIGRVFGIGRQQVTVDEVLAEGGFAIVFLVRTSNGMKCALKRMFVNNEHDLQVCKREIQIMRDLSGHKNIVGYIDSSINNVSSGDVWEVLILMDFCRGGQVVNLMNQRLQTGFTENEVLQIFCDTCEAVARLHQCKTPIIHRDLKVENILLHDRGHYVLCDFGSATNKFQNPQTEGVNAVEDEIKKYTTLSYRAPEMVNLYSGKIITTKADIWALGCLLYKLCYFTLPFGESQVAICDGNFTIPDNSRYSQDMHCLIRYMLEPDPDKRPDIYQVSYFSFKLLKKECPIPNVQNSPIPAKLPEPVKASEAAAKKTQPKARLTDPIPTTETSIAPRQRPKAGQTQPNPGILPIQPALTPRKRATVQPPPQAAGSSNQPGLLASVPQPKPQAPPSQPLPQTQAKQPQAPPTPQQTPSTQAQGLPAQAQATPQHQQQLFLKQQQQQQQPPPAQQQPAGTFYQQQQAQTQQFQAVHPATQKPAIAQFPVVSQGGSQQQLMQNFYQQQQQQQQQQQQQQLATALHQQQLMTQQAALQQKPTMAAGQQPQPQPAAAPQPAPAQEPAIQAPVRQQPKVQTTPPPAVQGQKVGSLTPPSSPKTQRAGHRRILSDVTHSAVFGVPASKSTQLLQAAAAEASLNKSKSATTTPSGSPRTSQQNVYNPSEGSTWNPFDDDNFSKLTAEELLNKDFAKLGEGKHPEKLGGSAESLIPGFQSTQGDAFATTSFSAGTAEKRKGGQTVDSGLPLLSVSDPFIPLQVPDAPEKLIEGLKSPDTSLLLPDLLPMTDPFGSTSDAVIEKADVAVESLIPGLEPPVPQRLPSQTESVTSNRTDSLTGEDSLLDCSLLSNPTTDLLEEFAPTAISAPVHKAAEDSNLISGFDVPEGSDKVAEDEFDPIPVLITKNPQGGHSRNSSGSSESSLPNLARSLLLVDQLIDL
Tyrosine-protein kinase Lyn, sequence (P07948 whole entry): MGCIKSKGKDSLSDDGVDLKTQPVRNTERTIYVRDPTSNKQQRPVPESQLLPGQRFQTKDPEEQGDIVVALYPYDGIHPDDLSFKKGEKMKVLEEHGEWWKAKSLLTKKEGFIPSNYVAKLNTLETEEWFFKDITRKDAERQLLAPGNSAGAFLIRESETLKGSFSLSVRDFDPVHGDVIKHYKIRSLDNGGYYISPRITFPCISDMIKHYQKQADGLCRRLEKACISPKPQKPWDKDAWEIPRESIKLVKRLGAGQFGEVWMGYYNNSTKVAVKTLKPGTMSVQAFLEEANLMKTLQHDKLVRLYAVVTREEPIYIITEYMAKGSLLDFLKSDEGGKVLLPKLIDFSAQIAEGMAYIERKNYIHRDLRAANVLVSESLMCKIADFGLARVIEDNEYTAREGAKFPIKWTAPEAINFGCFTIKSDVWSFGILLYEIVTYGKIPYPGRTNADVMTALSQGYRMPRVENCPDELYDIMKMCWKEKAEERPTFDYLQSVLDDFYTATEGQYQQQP
Serine/threonine-protein kinase 10, sequence (O94804 whole entry): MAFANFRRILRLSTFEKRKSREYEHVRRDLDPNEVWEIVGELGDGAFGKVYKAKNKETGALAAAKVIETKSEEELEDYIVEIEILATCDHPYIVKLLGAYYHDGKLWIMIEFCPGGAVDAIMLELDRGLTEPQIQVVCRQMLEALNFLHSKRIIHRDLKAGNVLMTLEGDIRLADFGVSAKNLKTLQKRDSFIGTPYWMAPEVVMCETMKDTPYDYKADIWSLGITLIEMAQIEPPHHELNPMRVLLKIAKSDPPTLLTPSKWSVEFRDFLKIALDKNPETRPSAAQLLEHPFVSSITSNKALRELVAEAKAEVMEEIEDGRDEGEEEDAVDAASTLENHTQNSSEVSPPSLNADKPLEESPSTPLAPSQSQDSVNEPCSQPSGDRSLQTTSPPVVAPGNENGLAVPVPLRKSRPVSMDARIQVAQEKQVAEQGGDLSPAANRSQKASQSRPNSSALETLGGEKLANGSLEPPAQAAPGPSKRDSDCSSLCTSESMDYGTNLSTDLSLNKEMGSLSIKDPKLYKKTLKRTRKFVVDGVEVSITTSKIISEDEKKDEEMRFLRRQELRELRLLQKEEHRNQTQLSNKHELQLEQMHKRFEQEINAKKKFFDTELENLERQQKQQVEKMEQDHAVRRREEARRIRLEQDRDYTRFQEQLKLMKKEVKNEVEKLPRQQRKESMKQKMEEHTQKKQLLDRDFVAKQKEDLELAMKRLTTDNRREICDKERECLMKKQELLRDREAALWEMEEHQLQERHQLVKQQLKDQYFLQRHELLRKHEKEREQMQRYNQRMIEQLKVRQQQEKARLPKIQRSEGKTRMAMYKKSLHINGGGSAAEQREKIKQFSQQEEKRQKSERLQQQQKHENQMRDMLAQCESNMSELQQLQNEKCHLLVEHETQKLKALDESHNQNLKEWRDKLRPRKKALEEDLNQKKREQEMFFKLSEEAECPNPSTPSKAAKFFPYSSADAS
Serine/threonine-protein kinase 16, sequence (O75716 whole entry): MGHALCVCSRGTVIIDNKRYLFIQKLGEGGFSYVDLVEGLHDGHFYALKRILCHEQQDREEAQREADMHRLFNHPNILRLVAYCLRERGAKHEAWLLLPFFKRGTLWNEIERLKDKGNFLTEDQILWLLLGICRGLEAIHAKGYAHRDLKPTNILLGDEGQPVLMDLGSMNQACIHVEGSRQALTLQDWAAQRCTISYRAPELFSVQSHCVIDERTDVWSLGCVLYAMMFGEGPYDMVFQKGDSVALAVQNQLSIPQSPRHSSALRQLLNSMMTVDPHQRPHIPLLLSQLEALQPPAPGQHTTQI
MAP kinase-activated protein kinase 2, sequence (P49137 whole entry): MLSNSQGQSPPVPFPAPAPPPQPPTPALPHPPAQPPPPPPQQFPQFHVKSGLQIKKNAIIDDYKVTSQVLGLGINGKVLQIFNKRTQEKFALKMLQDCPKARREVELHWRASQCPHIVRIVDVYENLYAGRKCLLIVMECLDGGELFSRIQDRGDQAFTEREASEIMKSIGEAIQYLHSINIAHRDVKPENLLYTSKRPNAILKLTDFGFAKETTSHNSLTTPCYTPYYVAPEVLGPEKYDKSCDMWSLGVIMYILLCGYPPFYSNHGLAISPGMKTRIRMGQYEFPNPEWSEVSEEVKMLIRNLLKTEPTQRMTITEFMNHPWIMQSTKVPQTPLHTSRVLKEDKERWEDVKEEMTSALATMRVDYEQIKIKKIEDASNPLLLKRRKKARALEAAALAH
Eukaryotic translation initiation factor 2-alpha kinase 1, sequence (Q9BQI3 whole entry): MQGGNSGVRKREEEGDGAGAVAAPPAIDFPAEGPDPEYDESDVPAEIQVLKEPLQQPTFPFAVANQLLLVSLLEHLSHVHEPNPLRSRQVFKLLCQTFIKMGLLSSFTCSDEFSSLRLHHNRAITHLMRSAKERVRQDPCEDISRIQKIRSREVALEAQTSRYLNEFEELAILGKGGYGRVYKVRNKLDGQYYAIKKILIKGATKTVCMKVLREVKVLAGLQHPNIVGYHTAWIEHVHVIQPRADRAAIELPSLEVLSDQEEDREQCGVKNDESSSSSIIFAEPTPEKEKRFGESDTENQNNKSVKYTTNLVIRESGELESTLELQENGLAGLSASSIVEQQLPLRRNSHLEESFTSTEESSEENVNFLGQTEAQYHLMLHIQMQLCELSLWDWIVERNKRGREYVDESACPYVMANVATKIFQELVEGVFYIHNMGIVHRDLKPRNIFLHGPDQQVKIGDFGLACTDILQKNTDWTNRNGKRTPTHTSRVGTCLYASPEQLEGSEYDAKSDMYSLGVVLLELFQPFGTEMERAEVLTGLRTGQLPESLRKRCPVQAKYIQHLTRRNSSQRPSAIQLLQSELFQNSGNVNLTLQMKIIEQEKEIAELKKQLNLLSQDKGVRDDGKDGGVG
Protein kinase C delta type, sequence (Q05655 whole entry): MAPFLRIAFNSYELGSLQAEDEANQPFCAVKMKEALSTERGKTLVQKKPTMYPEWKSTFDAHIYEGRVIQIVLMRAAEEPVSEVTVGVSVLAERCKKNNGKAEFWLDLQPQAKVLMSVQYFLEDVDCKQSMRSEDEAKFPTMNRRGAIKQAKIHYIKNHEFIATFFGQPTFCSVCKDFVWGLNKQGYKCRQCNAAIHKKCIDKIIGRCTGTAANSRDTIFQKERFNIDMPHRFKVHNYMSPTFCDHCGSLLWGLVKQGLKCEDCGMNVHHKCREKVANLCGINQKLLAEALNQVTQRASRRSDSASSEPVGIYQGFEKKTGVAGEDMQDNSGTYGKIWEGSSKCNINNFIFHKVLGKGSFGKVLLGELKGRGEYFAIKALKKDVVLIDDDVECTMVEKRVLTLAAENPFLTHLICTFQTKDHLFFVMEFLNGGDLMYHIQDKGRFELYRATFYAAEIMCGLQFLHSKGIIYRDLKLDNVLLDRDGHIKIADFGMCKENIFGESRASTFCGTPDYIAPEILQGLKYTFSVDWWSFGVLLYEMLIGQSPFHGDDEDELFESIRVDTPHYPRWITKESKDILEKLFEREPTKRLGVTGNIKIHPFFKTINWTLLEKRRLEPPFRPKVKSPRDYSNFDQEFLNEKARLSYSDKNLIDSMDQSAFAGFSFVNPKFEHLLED

| SMILES | Kd [1] | Kd [2] | Kd [3] | Kd [4] | Kd [5] | Kd [6] | Kd [7] | Kd [8] | Kd [9] | Kd [10] |
| --- | --- | --- | --- | --- | --- | --- | --- | --- | --- | --- |
| CCc1cnn2c(NCc3ccc[n+]([O-])c3)cc(N3CCCC[C@H]3CCO)nc12 [DINACICLIB] | > 30 µM (inactive) | > 30 µM (inactive) | > 30 µM (inactive) | > 30 µM (inactive) | > 30 µM (inactive) | > 30 µM (inactive) | > 30 µM (inactive) | > 30 µM (inactive) | > 30 µM (inactive) | > 30 µM (inactive) |
| Cn1ncc(Cl)c1-c1cc(C(=O)N[C@H](CN)Cc2cccc(F)c2)sc1Cl [AFURESERTIB] | > 30 µM (inactive) |  | > 30 µM (inactive) | > 30 µM (inactive) | > 30 µM (inactive) | > 30 µM (inactive) | > 30 µM (inactive) | > 30 µM (inactive) | > 30 µM (inactive) | > 30 µM (inactive) |
| CC[C@H](Nc1ncnc2[nH]cnc12)c1nc2cccc(F)c2c(=O)n1-c1ccccc1 [IDELALISIB] | > 30 µM (inactive) | > 30 µM (inactive) | > 30 µM (inactive) | > 30 µM (inactive) | > 30 µM (inactive) | > 30 µM (inactive) | > 30 µM (inactive) | > 30 µM (inactive) | > 30 µM (inactive) | > 30 µM (inactive) |
| O=C(O)[C@]1(Cc2cccc(Nc3nccs3)n2)CC[C@@H](Oc2cccc(Cl)c2F)CC1 [MK-5108] | > 30 µM (inactive) | > 30 µM (inactive) | > 30 µM (inactive) | > 30 µM (inactive) | 1.09 µM (active) | > 30 µM (inactive) | > 30 µM (inactive) | > 30 µM (inactive) | > 30 µM (inactive) | > 30 µM (inactive) |
| CN(C)C(=O)c1cc2cnc(Nc3ccc(N4CCNCC4)cn3)nc2n1C1CCCC1 [RIBOCICLIB] | > 30 µM (inactive) | > 30 µM (inactive) | > 30 µM (inactive) | > 30 µM (inactive) | > 30 µM (inactive) | > 30 µM (inactive) | > 30 µM (inactive) | > 30 µM (inactive) | > 30 µM (inactive) | > 30 µM (inactive) |
| COc1cc2nccc(Oc3ccc(NC(=O)NC4CC4)c(Cl)c3)c2cc1C(N)=O [LENVATINIB] | > 30 µM (inactive) | > 30 µM (inactive) | 0.063 µM (active) | > 30 µM (inactive) | 0.793 µM (active) | > 30 µM (inactive) | > 30 µM (inactive) |  | > 30 µM (inactive) | > 30 µM (inactive) |
| CN1CCN(c2ccc3nc(-c4c(N)c5c(F)cccc5[nH]c4=O)[nH]c3c2)CC1 [DOVITINIB] |  | > 30 µM (inactive) |  |  |  |  |  |  |  | > 30 µM (inactive) |
| CNC(=O)c1ccc(C)c(-n2c(C)cc(OCc3ccc(F)cc3F)c(Br)c2=O)c1 [PH-797804] | > 30 µM (inactive) |  |  | > 30 µM (inactive) | > 30 µM (inactive) | > 30 µM (inactive) | > 30 µM (inactive) | > 30 µM (inactive) | > 30 µM (inactive) | > 30 µM (inactive) |
| COCCNCc1ccc(-c2cc3nccc(Oc4ccc(NC(=S)NC(=O)Cc5ccc(F)cc5)cc4F)c3s2)nc1 [GLESATINIB] | > 30 µM (inactive) | > 30 µM (inactive) | > 30 µM (inactive) | > 30 µM (inactive) | > 30 µM (inactive) | > 30 µM (inactive) |  | > 30 µM (inactive) | > 30 µM (inactive) | > 30 µM (inactive) |
| O=C(Nc1cccc(Cl)c1)Nc1ncc(CCNc2ncnc3ccsc23)s1 [SNS-314] | > 30 µM (inactive) | > 30 µM (inactive) |  | > 30 µM (inactive) | > 30 µM (inactive) |  | > 30 µM (inactive) | > 30 µM (inactive) | > 30 µM (inactive) | > 30 µM (inactive) |
| C1=C/COCc2cc(ccc2OCCN2CCCC2)Nc2nccc(n2)-c2cccc(c2)COC/1 [PACRITINIB] | 0.042 µM (active) | > 30 µM (inactive) | > 30 µM (inactive) | 1.87 µM (active) |  | > 30 µM (inactive) | > 30 µM (inactive) | > 30 µM (inactive) | > 30 µM (inactive) | > 30 µM (inactive) |
| C[C@@H](c1ccc2nccn2c1)n1nnc2ncc(-c3cnn(C)c3)nc21 [SAVOLITINIB] | > 30 µM (inactive) | > 30 µM (inactive) |  | > 30 µM (inactive) | > 30 µM (inactive) | > 30 µM (inactive) | > 30 µM (inactive) | > 30 µM (inactive) | > 30 µM (inactive) | > 30 µM (inactive) |
| Cc1cn(-c2cc(NC(=O)c3ccc(C)c(Nc4nccc(-c5cccnc5)n4)c3)cc(C(F)(F)F)c2)cn1 [NILOTINIB] |  | > 30 µM (inactive) |  |  |  |  |  |  |  | > 30 µM (inactive) |
| Nc1nc(N)c2nc(-c3cccc(O)c3)c(-c3cccc(O)c3)nc2n1 [TG100-115] |  | > 30 µM (inactive) |  |  |  |  |  |  |  | > 30 µM (inactive) |
| CN1N=C(N)c2cn([C@@H]3O[C@H](COP(=O)(O)O)[C@@H](O)[C@H]3O)c3ncnc1c23 [TRICIRIBINE PHOSPHATE] | > 30 µM (inactive) | > 30 µM (inactive) | > 30 µM (inactive) | > 30 µM (inactive) | > 30 µM (inactive) | > 30 µM (inactive) | > 30 µM (inactive) | > 30 µM (inactive) |  | > 30 µM (inactive) |
| COC(=O)[C@@]1(O)C[C@H]2O[C@]1(C)n1c3ccccc3c3c4c(c5c6ccccc6n2c5c31)C(=O)NC4 [K-252A] | 0.005 µM (active) | > 30 µM (inactive) | > 30 µM (inactive) | > 30 µM (inactive) | 0.481 µM (active) |  | > 30 µM (inactive) | 4.12 µM (active) | > 30 µM (inactive) | > 30 µM (inactive) |

More lines, now with the values ahead:

| Kd [1] | Kd [2] | Kd [3] | Kd [4] | Kd [5] | Kd [6] | Kd [7] | Kd [8] | Kd [9] | Kd [10] | SMILES |
| --- | --- | --- | --- | --- | --- | --- | --- | --- | --- | --- |
|  | > 30 µM (inactive) |  | 0.702 µM (active) |  |  | > 30 µM (inactive) |  |  | > 30 µM (inactive) | Cc1cc(Nc2cc(N3CCN(C)CC3)nc(/C=C/c3ccccc3)n2)n[nH]1 [ENMD-2076] |
|  | > 30 µM (inactive) |  |  |  |  |  |  |  | > 30 µM (inactive) | CCn1c(-c2nonc2N)nc2c(C#CC(C)(C)O)ncc(OC[C@H]3CCCNC3)c21 [GSK-690693] |
| 0.006 µM (active) | > 30 µM (inactive) |  | 0.21 µM (active) |  |  |  | > 30 µM (inactive) | > 30 µM (inactive) | > 30 µM (inactive) | Cc1nc(N)sc1-c1ccnc(Nc2ccc(N3CCOCC3)cc2)n1 [CYC-116] |
| > 30 µM (inactive) |  | > 30 µM (inactive) | > 30 µM (inactive) | > 30 µM (inactive) | > 30 µM (inactive) | > 30 µM (inactive) | > 30 µM (inactive) | > 30 µM (inactive) | > 30 µM (inactive) | C[C@@H](Nc1cc(F)cc(F)c1)c1cc(C(=O)N(C)C)cc2c(=O)cc(N3CCOCC3)oc12 [AZD-8186] |
